Assay results: patent USRE42890E1, “Furazanobenzimidazoles” (Basilea Pharmaceutica AG, priority 2003, dated 2011)

What was measured:
Jurkat = experiment: MTS proliferation assay, Jurkat; type: cell-based, human; conditions: 72 h incubation, read-out: MTS proliferation assay IC 50 Jurkat
Method in brief: (§1)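 Absorbance at 492 nm after 3 h with MTS reagent gave proliferation. This followed 72 h compound exposure (final 0.3, 1, 3, 10 μM) at 37 °C and 7.5% CO2. Cells had been plated 24 h earlier in complete RPMI-1640 with 5% or 10% FCS.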

Jily = experiment: MTS proliferation assay, Jily; type: cell-based; conditions: 72 h incubation, read-out: MTS proliferation assay IC 50 Jily
Method in brief: (§2)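 Antiproliferative read-out by MTS (3 h, A492) after 72 h compound exposure at final 0.3–10 μM (four concentrations). Cells were plated 24 h earlier in RPMI-1640 containing 5% or 10% FCS, cultured at 37 °C with 7.5% CO2.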

HT1080 = experiment: MTS proliferation assay, HT1080; type: cell-based, human; conditions: HT1080, 72 h incubation; read-out: MTS proliferation assay IC 50 HT1080
Method in brief: as §1

HeLa = experiment: MTS proliferation assay, HeLa; type: cell-based, human; conditions: 72 h incubation, read-out: MTS proliferation assay IC 50 HeLa
Method in brief: as §1

MRC5 = experiment: MTS proliferation assay, MRC5; type: cell-based; conditions: MRC5, 72 h incubation; read-out: MTS proliferation assay IC 50 MRC5
Method in brief: as §2

[1] = test system: adherent cells or suspension cells; experiment: Hoechst 33342 nuclear staining (fraction of apoptotic nuclei); type: cell-based; design: key: 0 relating to no activity; 1 relating to weak activity comprising less than 70% of the cells; score 2 relating to strong activity comprising more than 70% of the cells

| IC50 (Jurkat) [µM] | IC50 (HT1080) [µM] | IC50 (HeLa) [µM] | SMILES | IC50 (Jily) [µM] | IC50 (MRC5) [µM] | Hoechst 33342 nuclear staining score ([1]; HeLa, conc 0.01 μm) | Hoechst 33342 nuclear staining score ([1]; HeLa, conc 0.1 μm) | Hoechst 33342 nuclear staining score ([1]; HeLa, conc 1 μm) | Hoechst 33342 nuclear staining score ([1]; Jily, conc 0.01 μm) | Hoechst 33342 nuclear staining score ([1]; Jily, conc 0.1 μm) | Hoechst 33342 nuclear staining score ([1]; Jily, conc 1 μm) | Hoechst 33342 nuclear staining score ([1]; Jurkat, conc 0.01 μm) | Hoechst 33342 nuclear staining score ([1]; Jurkat, conc 0.1 μm) | Hoechst 33342 nuclear staining score ([1]; Jurkat, conc 1 μm) | Hoechst 33342 nuclear staining score ([1]; MRC5, conc 0.01 μm) | Hoechst 33342 nuclear staining score ([1]; MRC5, conc 0.1 μm) | Hoechst 33342 nuclear staining score ([1]; MRC5, conc 1 μm) | Hoechst 33342 nuclear staining score ([1]; PBLs, conc 0.01 μm) | Hoechst 33342 nuclear staining score ([1]; PBLs, conc 0.1 μm) | Hoechst 33342 nuclear staining score ([1]; PBLs, conc 1 μm) | further results |
| --- | --- | --- | --- | --- | --- | --- | --- | --- | --- | --- | --- | --- | --- | --- | --- | --- | --- | --- | --- | --- | --- |
| 0.01 to 0.1 | 0.1 to 1 | 0.1 to 1 | N#CCCNc1nonc1-c1nc2ccccc2n1COc1ccc(Cl)cc1 [Example 93] | 0.01 to 0.1 | 0.1 to 1 | 0 | 0 | 2 (score 2 relating to strong activity comprising more than 70% of the cells) | 0 | 2 (score 2 relating to strong activity comprising more than 70% of the cells) | 2 (score 2 relating to strong activity comprising more than 70% of the cells) | 0 | 2 (score 2 relating to strong activity comprising more than 70% of the cells) | 2 (score 2 relating to strong activity comprising more than 70% of the cells) | 0 | 0 | 2 (score 2 relating to strong activity comprising more than 70% of the cells) | 0 | 0 | 0 | Hoechst 33342 nuclear staining score ([1]; H460, conc 0.01 μm): 0; Hoechst 33342 nuclear staining score ([1]; H460, conc 0.1 μm): 1 (1 relating to weak activity comprising less than 70% of the cells); Hoechst 33342 nuclear staining score ([1]; H460, conc 1 μm): 2 (score 2 relating to strong activity comprising more than 70% of the cells) |
| 0.01 to 0.1 | 0.01 to 0.1 | 0.01 to 0.1 | N#CCCNc1nonc1-c1nc2ccccc2n1COc1ccc(Br)cc1 [Example 94] | 0.01 to 0.1 | 0.1 to 1 | 0 | 1 (1 relating to weak activity comprising less than 70% of the cells) | 2 (score 2 relating to strong activity comprising more than 70% of the cells) | 0 | 2 (score 2 relating to strong activity comprising more than 70% of the cells) | 2 (score 2 relating to strong activity comprising more than 70% of the cells) | 0 | 2 (score 2 relating to strong activity comprising more than 70% of the cells) | 2 (score 2 relating to strong activity comprising more than 70% of the cells) | 0 | 0 | 2 (score 2 relating to strong activity comprising more than 70% of the cells) | 0 | 0 | 0 | Hoechst 33342 nuclear staining score ([1]; H460, conc 0.01 μm): 0; Hoechst 33342 nuclear staining score ([1]; H460, conc 0.1 μm): 2 (score 2 relating to strong activity comprising more than 70% of the cells); Hoechst 33342 nuclear staining score ([1]; H460, conc 1 μm): 2 (score 2 relating to strong activity comprising more than 70% of the cells) |
| 0.1 to 1 | 0.1 to 1 | 0.1 to 1 | N#CCCNc1nonc1-c1nc2ccccc2n1COc1ccccc1 [Example 95] | 0.1 to 1 | 0.1 to 1 | 0 | 0 | 1 (1 relating to weak activity comprising less than 70% of the cells) | 0 | 0 | 1 (1 relating to weak activity comprising less than 70% of the cells) | 0 | 0 | 2 (score 2 relating to strong activity comprising more than 70% of the cells) | 0 | 0 | 0 | 0 | 0 | 0 |  |
| 0.1 to 1 | 0.1 to 1 | 0.1 to 1 | Nc1nonc1-c1nc2ccccc2n1COc1ccc(C=O)cc1 [Example 96] | 0.1 to 1 | 0.1 to 1 | 0 | 0 | 2 (score 2 relating to strong activity comprising more than 70% of the cells) | 0 | 0 | 2 (score 2 relating to strong activity comprising more than 70% of the cells) | 0 | 0 | 2 (score 2 relating to strong activity comprising more than 70% of the cells) | 0 | 0 | 0 | 0 | 0 | 0 | Hoechst 33342 nuclear staining score ([1]; H460, conc 0.01 μm): 0; Hoechst 33342 nuclear staining score ([1]; H460, conc 0.1 μm): 0; Hoechst 33342 nuclear staining score ([1]; H460, conc 1 μm): 1 (1 relating to weak activity comprising less than 70% of the cells) |
| 0.1 to 1 | 0.1 to 1 | 0.1 to 1 | Nc1nonc1-c1nc2ccccc2n1COc1ccc(CO)cc1 [Example 97] | 0.1 to 1 | 0.1 to 1 | 0 | 0 | 2 (score 2 relating to strong activity comprising more than 70% of the cells) | 0 | 0 | 2 (score 2 relating to strong activity comprising more than 70% of the cells) | 0 | 0 | 2 (score 2 relating to strong activity comprising more than 70% of the cells) | 0 | 0 | 0 | 0 | 0 | 0 | Hoechst 33342 nuclear staining score ([1]; H460, conc 0.01 μm): 0; Hoechst 33342 nuclear staining score ([1]; H460, conc 0.1 μm): 0; Hoechst 33342 nuclear staining score ([1]; H460, conc 1 μm): 2 (score 2 relating to strong activity comprising more than 70% of the cells) |
| 0.1 to 1 | > 1 | > 1 | Nc1nonc1-c1nc2ccccc2n1COc1ccc([N+](=O)[O-])cc1 [Example 98] | 0.1 to 1 | > 1 | 0 | 0 | 0 | 0 | 0 | 2 (score 2 relating to strong activity comprising more than 70% of the cells) | 0 | 0 | 2 (score 2 relating to strong activity comprising more than 70% of the cells) | 0 | 0 | 0 | 0 | 0 | 0 | Hoechst 33342 nuclear staining score ([1]; H460, conc 0.01 μm): 0; Hoechst 33342 nuclear staining score ([1]; H460, conc 0.1 μm): 0; Hoechst 33342 nuclear staining score ([1]; H460, conc 1 μm): 0 |
| 0.1 to 1 | > 1 | > 1 | Nc1ccc(OCn2c(-c3nonc3N)nc3ccccc32)cc1 [Example 99] | 0.1 to 1 | > 1 | 0 | 0 | 0 | 0 | 0 | 1 (1 relating to weak activity comprising less than 70% of the cells) | 0 | 0 | 1 (1 relating to weak activity comprising less than 70% of the cells) | 0 | 0 | 0 | 0 | 0 | 0 | Hoechst 33342 nuclear staining score ([1]; H460, conc 0.01 μm): 0; Hoechst 33342 nuclear staining score ([1]; H460, conc 0.1 μm): 0; Hoechst 33342 nuclear staining score ([1]; H460, conc 1 μm): 0 |
